1 compound from PubChem BioAssay AID1380 (University of Pittsburgh Molecular Library Screening Center, 2008) can be followed below.

In this assay the target is Cyclin-dependent kinase 7 (Homo sapiens) (UniProt P50613). The assay can be described thus: CDK7 kinase inhibition, dose response, counter-screen for PKD inhibitor project, biochemical, 57K library addition (AID 1380). Conditions: CDK7 biochemical kinase assay, counterscreen. On the technique in general: Counterscreens check selectivity or assay interference.

Calls of active or inactive are those of the source. The rule behind the calls is not given here.

Sequence of Cyclin-dependent kinase 7 (Homo sapiens) (P50613 whole entry, looked up): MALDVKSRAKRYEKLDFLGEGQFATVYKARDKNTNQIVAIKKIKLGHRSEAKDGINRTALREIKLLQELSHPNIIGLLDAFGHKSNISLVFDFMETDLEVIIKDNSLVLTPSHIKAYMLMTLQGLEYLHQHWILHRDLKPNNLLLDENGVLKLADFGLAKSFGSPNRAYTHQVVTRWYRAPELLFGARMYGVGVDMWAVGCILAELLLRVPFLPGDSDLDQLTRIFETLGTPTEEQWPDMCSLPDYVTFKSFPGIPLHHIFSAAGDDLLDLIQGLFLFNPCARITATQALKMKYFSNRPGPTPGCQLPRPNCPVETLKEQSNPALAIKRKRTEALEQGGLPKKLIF

By IC50 is commonly meant the midpoint of a concentration-inhibition curve. Regarding `C/C(=N\Nc1ncc(Cl)cc1Cl)c1ccccn1`, the IC50 is > 100 µM (inactive).
